This passage reports MIC results from DBAASP.

Among the test systems are Escherichia coli UB1005; Escherichia coli K88; Klebsiella pneumoniae; Escherichia coli K99; Pseudomonas aeruginosa; Acinetobacter baumannii; Escherichia coli.
Common to all, as to assay: ≥ marks a high value that may be exact or a test limit, other limits are often not marked, values filed in µg/mL are converted to µM
The subject of test [1] is Candida albicans ATCC 90028.
In test [2] the test system is Batrachochytrium dendrobatidis.
The test system of test [3] is Staphylococcus aureus NCTC 8325.
The test system of test [4] is Escherichia coli ATCC 25922.
The subject of test [5] is Salmonella enterica subsp. enterica serovar Typhimurium C77-31.
Test [6] relates to Salmonella enterica subsp. enterica serovar Pullorum C79-13.
For test [7], the system named is Pseudomonas aeruginosa CICC 21630.
Test [8] relates to Salmonella enterica subsp. enterica serovar Typhimurium ATCC 14028.
Test [9] concerns Pseudomonas aeruginosa PAO1.
The subject of test [10] is Pseudomonas aeruginosa CICC 21625.
Test [11] relates to Pseudomonas aeruginosa ATCC 27853.

Values after ≈ are worked out from the molar mass of the structure shown. Values joined by “and” are separate entries in the source; they are usually repeats but may differ in a detail not shown here. Equal entries are not always repeated. Some results are limits rather than exact numbers.

A word on the MIC: it is the lowest concentration that inhibits growth of the organism. The low end stands for greater potency, the high end for weaker potency. For `CC[C@H](C)[C@H](NC(=O)[C@H](CC(C)C)NC(=O)[C@@H]1CCCN1C(=O)[C@H](CC(C)C)NC(=O)[C@@H](N)Cc1ccccc1)C(=O)NCC(=O)N[C@@H](CCCCN)C(=O)N[C@H](C(=O)N[C@@H](CC(C)C)C(=O)NCC(=O)N[C@H](C(=O)N[C@H](C(=O)N[C@@H](CC(C)C)C(N)=O)[C@@H](C)CC)[C@@H](C)O)[C@@H](C)CC` [FLPLIGKILGTIL], the MIC is not below 150 µM in [1]; ≥ 50 µM and 25 µM in [2]; 5 µM (≈ 6.98 µg/mL) in [3]; 140 µM (≈ 196 µg/mL) in test [4].

Regarding `CC[C@H](C)[C@H](N)C(=O)N[C@@H](CCCN=C(N)N)C(=O)N1CCC[C@H]1C(=O)N[C@H](C(=O)N[C@H](C(=O)N[C@@H](CCCN=C(N)N)C(=O)N1CCC[C@H]1C(=O)N[C@H](C(=O)N[C@H](C(=O)N[C@@H](CCCN=C(N)N)C(=O)N1CCC[C@H]1C(=O)N[C@H](C(=O)N[C@H](C(=O)N[C@@H](CCCN=C(N)N)C(=O)N1CCC[C@H]1C(=O)N[C@H](C(=O)N[C@H](C(=O)N[C@@H](CCCN=C(N)N)C(=O)N1CCC[C@H]1C(=O)N[C@H](C(=O)N[C@H](C(=O)N[C@@H](CCCN=C(N)N)C(=O)N1CCC[C@H]1C(=O)N[C@H](C(N)=O)[C@@H](C)CC)[C@@H](C)CC)[C@@H](C)CC)[C@@H](C)CC)[C@@H](C)CC)[C@@H](C)CC)[C@@H](C)CC)[C@@H](C)CC)[C@@H](C)CC)[C@@H](C)CC)[C@@H](C)CC` [IRPIIRPIIRPIIRPIIRPIIRPI], the MIC in the test with Escherichia coli UB1005 was 2 µM (≈ 5.79 µg/mL); against Escherichia coli K88, 1 µM (≈ 2.89 µg/mL); in test [5], 4 µM (≈ 11.6 µg/mL); in the test on Klebsiella pneumoniae, 16 µM (≈ 46.3 µg/mL); against Escherichia coli K99 it was 2 µM (≈ 5.79 µg/mL); in the test with Pseudomonas aeruginosa, more than 64 µM. For the same molecule, the MIC was 4 µM (≈ 11.6 µg/mL) in test [6]; not below 64 µM in test [7]; 4 µM (≈ 11.6 µg/mL) against Acinetobacter baumannii; 4 µM (≈ 11.6 µg/mL) in [8]; 8 µM (≈ 23.2 µg/mL) in test [9]; not below 64 µM in test [10]. The MIC in test [11] turned out to be 8 µM (≈ 23.2 µg/mL); in [4] it was 2 µM (≈ 5.79 µg/mL); against Escherichia coli it was 2 µM (≈ 5.79 µg/mL).

Consider `CC(C)C[C@H](NC(=O)[C@@H]1CCCN1C(=O)[C@H](CCCCN)NC(=O)[C@H](CC(C)C)NC(=O)[C@H](CC(C)C)NC(=O)[C@@H]1CCCN1C(=O)[C@H](CCCCN)NC(=O)[C@H](CC(C)C)NC(=O)[C@H](CC(C)C)NC(=O)[C@@H]1CCCN1C(=O)[C@H](CCCCN)NC(=O)[C@H](CC(C)C)NC(=O)[C@H](CC(C)C)NC(=O)[C@@H]1CCCN1C(=O)[C@H](CCCCN)NC(=O)[C@H](CC(C)C)NC(=O)[C@H](CC(C)C)NC(=O)[C@@H]1CCCN1C(=O)[C@H](CCCCN)NC(=O)[C@@H](N)CC(C)C)C(N)=O` [LKPLLKPLLKPLLKPLLKPL], for which the MIC with Escherichia coli UB1005 worked out at 2 µM (≈ 4.55 µg/mL); in the test on Escherichia coli K88 it was 2 µM (≈ 4.55 µg/mL); in test [5], 16 µM (≈ 36.4 µg/mL); in the test with Klebsiella pneumoniae, 32 µM (≈ 72.8 µg/mL); in the test on Escherichia coli K99, 2 µM (≈ 4.55 µg/mL); in the test with Pseudomonas aeruginosa, 32 µM (≈ 72.8 µg/mL). For the same molecule, the MIC in test [6] was 4 µM (≈ 9.1 µg/mL); in test [7] it was not below 32 µM; against Acinetobacter baumannii, 4 µM (≈ 9.1 µg/mL); in [8], 8 µM (≈ 18.2 µg/mL); in test [9] it was more than 64 µM; in test [10], not below 64 µM. Further, the MIC worked out at 16 µM (≈ 36.4 µg/mL) in [11], 2 µM (≈ 4.55 µg/mL) in test [4] and 4 µM (≈ 9.1 µg/mL) in the test with Escherichia coli.

Regarding `CC[C@H](C)[C@@H]1NC(=O)[C@H](CCCCN)NC(=O)[C@@H](NC(=O)[C@H](CCCCN)NC(=O)[C@H](CC(C)C)NC(=O)[C@H](CCCCN)NC(=O)[C@H](CC(=O)O)NC(=O)[C@H](CC(C)C)NC(=O)[C@H](CCSC)NC(=O)[C@H](Cc2cnc[nH]2)NC(=O)CNC(=O)[C@H](C)NC(=O)[C@H](CC(C)C)NC(=O)[C@H](CC(N)=O)NC(=O)[C@H](CCCCN)NC(=O)[C@H](C)NC(=O)[C@@H](NC(=O)[C@H](CC(N)=O)NC(=O)[C@H](CCCCN)NC(=O)[C@@H](NC(=O)[C@@H](NC(=O)[C@H](CC(=O)O)NC(=O)[C@H](CCSC)NC(=O)[C@@H](N)CC(C)C)[C@@H](C)O)C(C)C)C(C)C)CSSC[C@@H](C(=O)O)NC(=O)CNC(=O)[C@H]([C@@H](C)O)NC1=O` [LMDTVKNVAKNLAGHMLDKLKCKITGC], the MIC in test [1] is not below 67 µM; in test [2] it was not below 100 µM; in test [3], not below 50 µM; in test [4], 13 µM (≈ 38.3 µg/mL).
